Assay results taken from BindingDB's records for doi:10.1016/j.bmc.2010.04.075 (Chungnam National University, 2010).
pIC50: −log10 of the molar value.

Experiment: Inhibition of IL5-mediated proliferation of mouse Y16 cells by WST1 assay
For `COc1cc(-c2coc3cccc(OCC4CCCCC4)c3c2=O)ccc1OCc1ccccc1` [3-(4-(Benzyloxy)-3-methoxyphenyl)-5-(cyclohexylmethoxy)-4H-chromen-4-one], the pIC50 was 4.76.
For `COc1ccc(-c2coc3cccc(OCC4CCCCC4)c3c2=O)cc1OC` [5-(Cyclohexylmethoxy)-3-(3,4-dimethoxyphenyl)-4Hchromen-4-one], the pIC50 was < 4.52.
With `CCc1ccc(-c2coc3cccc(OCC4CCCCC4)c3c2=O)cc1` [5-(Cyclohexylmethoxy)-3-(4-ethylphenyl)-4H-chromen-4-one] the pIC50 was < 4.52.
In the case of `COc1cc(-c2coc3cccc(OCC4CCCCC4)c3c2=O)ccc1O` [5-(Cyclohexylmethoxy)-3-(4-hydroxy-3-methoxyphenyl)-4H-chromen-4-one], the pIC50 was < 4.52.
For `COc1ccc(-c2coc3cccc(OCC4CCCCC4)c3c2=O)cc1` [5-(Cyclohexylmethoxy)-3-(4-methoxyphenyl)-4H-chromen-4-one], the pIC50 was < 4.52.
In the case of `COCOc1ccc(-c2coc3cccc(OCC4CCCCC4)c3c2=O)cc1` [5-(Cyclohexylmethoxy)-3-[4-(methoxymethoxy)phenyl]-4H-chromen-4-one], the pIC50 was < 4.52.
In the case of `O=C1/C(=C/c2ccc(Cl)cc2)Oc2cccc(OCC3CCCCC3)c21` [(Z)-2-(4-Chlorobenzylidene)-4-(cyclohexylmethoxy)benzofuran-3(2H)-one], the pIC50 was < 4.52.
With `O=C1/C(=C/c2ccccc2)Oc2cccc(OCC3CCCCC3)c21` [(Z)-2-(Benzylidene)-4-(cyclohexylmethoxy)benzofuran-3(2H)-one] the pIC50 was < 4.52.
With `O=C1/C(=C/c2ccc([N+](=O)[O-])cc2)Oc2cccc(OCC3CCCCC3)c21` [(Z)-4-(Cyclohexylmethoxy)-2-(4-nitrobenzylidene)benzofuran-3(2H)-one] the pIC50 was < 4.52.
For `CCc1ccc(/C=C2\Oc3cccc(OCC4CCCCC4)c3C2=O)cc1` [(Z)-4-(cyclohexylmethoxy)-2-(4-ethylbenzylidene)benzofuran-3(2H)-one], the pIC50 was < 4.52.
For `O=Cc1ccc(/C=C2\Oc3cccc(OCC4CCCCC4)c3C2=O)cc1` [(Z)-4-{[4-(Cyclohexylmethoxy)-3-oxobenzofuran-2(3H)-ylidene]methyl}benzaldehyde], the pIC50 was < 4.52.
With `COC(=O)c1ccc(/C=C2\Oc3cccc(OCC4CCCCC4)c3C2=O)cc1` [Methyl(Z)-4-[4-(cyclohexylmethoxy)-3-oxobenzofuran-2(3H)-ylidene]methylbenzoate] the pIC50 was < 4.52.
